In ChEMBL document CHEMBL1134149, “Discovery, total synthesis, HRV 3C-protease inhibitory activity, and structure-activity relationships of 2-methoxystypandrone and its analogues” (Bioorg Med Chem Lett, 2001) one finds IC50 and inhibition data, which are given here for 6 molecules.

Structures are written as SMILES.

One assay has as its target T1, Papain (Carica papaya, UniProt P00784).
T1 sequence (P00784 whole entry): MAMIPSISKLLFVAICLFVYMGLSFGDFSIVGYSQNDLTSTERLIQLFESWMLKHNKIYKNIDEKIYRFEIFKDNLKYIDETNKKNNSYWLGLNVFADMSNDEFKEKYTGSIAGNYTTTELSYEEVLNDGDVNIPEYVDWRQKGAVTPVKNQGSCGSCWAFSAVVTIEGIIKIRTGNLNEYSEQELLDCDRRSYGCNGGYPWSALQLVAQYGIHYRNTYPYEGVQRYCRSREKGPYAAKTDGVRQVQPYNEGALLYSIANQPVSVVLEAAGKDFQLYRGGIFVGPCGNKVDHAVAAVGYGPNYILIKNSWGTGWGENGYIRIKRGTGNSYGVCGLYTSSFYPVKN
Briefly: Inhibitory activity against papain using HPLC assay.

The next assay deals with T2, Papain (Carica papaya) (UniProt P00784).
T2 sequence (whole entry): T1 sequence (P00784 whole entry)
Briefly: Percent inhibition against papain. Conditions: concentration not given here.

In turn, `COC1=CC(=O)c2c(cc(C)c(C(C)=O)c2OC(C)=O)C1=O` registered a concentration for half-maximal inhibition (IC50) against Papain of 33 µM. That is a double-digit micromolar value.
`COC1=CC(=O)c2c(cc(C)c(C(C)=O)c2O)C1=O` registered a 50% inhibitory concentration (IC50) against Papain of 23 µM.
Turning to `O=C1C=CC(=O)c2c1ccc1c2ccc2ccccc21`, 18 µM corresponded to half-maximal inhibition against Papain (IC50). Moreover, at Papain (Carica papaya), the inhibition was 45%.
On the same counts, the results for `O=C1C=Cc2ccccc2C1=O` [1,2-NAPHTHOQUINONE] are 120 µM and 67%.
`O=C1C(=O)c2ccccc2-c2ccccc21` [9,10-PHENANTHRENEQUINONE]: inhibition on Papain was half-maximal at 91 µM (IC50). The inhibition against Papain (Carica papaya) is 24%.
Regarding `O=C1C=CC(=O)c2ccccc21` [NAPHTHOQUINONE], the 50% inhibitory concentration (IC50) against Papain amounted to 29 µM.
